According to ChEMBL document CHEMBL1817568, “Novel hybrids of fluconazole and furanones: design, synthesis and antifungal activity” (2011):
Converted amounts (≈) assume the structure as drawn. The source made the active and inactive calls. No cut-off for these calls is given here.

Assays:
Pichia kudriavzevii [1] = assay: Antifungal activity against Candida krusei ATCC 6258 at 4 ug/ml by broth dilution method; assay type: functional, organism-based
Candida albicans [2] = assay: Antifungal activity against Candida albicans ATCC 24433 at 4 ug/ml by broth dilution method; assay type: functional, organism-based
Nakaseomyces glabratus [3] = assay: Antifungal activity against Candida glabrata ATCC 90030 at 4 ug/ml by broth dilution method; assay type: functional, organism-based
Fusarium proliferatum [4] = assay: Antifungal activity against Fusarium proliferatum ATCC 10052 at 4 ug/ml by broth dilution method; assay type: functional, organism-based
Aspergillus niger [5] = assay: Antifungal activity against Aspergillus niger ATCC 16404 at 4 ug/ml by broth dilution method; assay type: functional, organism-based
Aspergillus fumigatus [6] = assay: Antifungal activity against Aspergillus fumigatus ATCC 46645 at 4 ug/ml by broth dilution method; assay type: functional, organism-based
Candida tropicalis [7] = assay: Antifungal activity against Candida tropicalis ATCC 750 at 4 ug/ml by broth dilution method; assay type: functional, organism-based
Cryptococcus neoformans [8] = assay: Antifungal activity against Cryptococcus neoformans ATCC 34664 at 4 ug/ml by broth dilution method; assay type: functional, organism-based
Fusarium proliferatum [9] = assay: Antifungal activity against Fusarium proliferatum ATCC 10052 at 8 ug/ml by broth dilution method; assay type: functional, organism-based
Pichia kudriavzevii [10] = assay: Antifungal activity against Candida krusei ATCC 6258 at 8 ug/ml by broth dilution method; assay type: functional, organism-based
Candida albicans [11] = assay: Antifungal activity against Candida albicans ATCC 24433 at 8 ug/ml by broth dilution method; assay type: functional, organism-based
Nakaseomyces glabratus [12] = assay: Antifungal activity against Candida glabrata ATCC 90030 at 8 ug/ml by broth dilution method; assay type: functional, organism-based
Cryptococcus neoformans [13] = assay: Antifungal activity against Cryptococcus neoformans ATCC 34664 at 8 ug/ml by broth dilution method; assay type: functional, organism-based
Aspergillus fumigatus [14] = assay: Antifungal activity against Aspergillus fumigatus ATCC 46645 at 8 ug/ml by broth dilution method; assay type: functional, organism-based
Aspergillus niger [15] = assay: Antifungal activity against Aspergillus niger ATCC 16404 at 8 ug/ml by broth dilution method; assay type: functional, organism-based
Candida albicans [16] = assay: Antifungal activity against Candida albicans ATCC 24433 by broth dilution method; assay type: functional
Nakaseomyces glabratus [17] = assay: Antifungal activity against Candida glabrata ATCC 90030 by broth dilution method; assay type: functional
Candida tropicalis [18] = assay: Antifungal activity against Candida tropicalis ATCC 750 by broth dilution method; assay type: functional
Cryptococcus neoformans [19] = assay: Antifungal activity against Cryptococcus neoformans ATCC 34664 by broth dilution method; assay type: functional
Pichia kudriavzevii [20] = assay: Antifungal activity against Candida krusei ATCC 6258 by broth dilution method; assay type: functional
Pichia kudriavzevii [21] = assay: Antifungal activity against Candida krusei ATCC 6258 at 16 ug/ml by broth dilution method; assay type: functional, organism-based
Aspergillus fumigatus [22] = assay: Antifungal activity against Aspergillus fumigatus ATCC 46645 at 128 ug/ml by broth dilution method; assay type: functional, organism-based
Aspergillus niger [23] = assay: Antifungal activity against Aspergillus niger ATCC 16404 at 128 ug/ml by broth dilution method; assay type: functional, organism-based
Fusarium proliferatum [24] = assay: Antifungal activity against Fusarium proliferatum ATCC 10052 at 128 ug/ml by broth dilution method; assay type: functional, organism-based
Pichia kudriavzevii [25] = assay: Antifungal activity against Candida krusei ATCC 6258 at 128 ug/ml by broth dilution method; assay type: functional, organism-based
Candida tropicalis [26] = assay: Antifungal activity against Candida tropicalis ATCC 750 at 128 ug/ml by broth dilution method; assay type: functional, organism-based
Aspergillus fumigatus [27] = assay: Antifungal activity against Aspergillus fumigatus ATCC 46645 at 16 ug/ml by broth dilution method; assay type: functional, organism-based
Fusarium proliferatum [28] = assay: Antifungal activity against Fusarium proliferatum ATCC 10052 at 16 ug/ml by broth dilution method; assay type: functional, organism-based
Aspergillus niger [29] = assay: Antifungal activity against Aspergillus niger ATCC 16404 at 16 ug/ml by broth dilution method; assay type: functional, organism-based
Cryptococcus neoformans [30] = assay: Antifungal activity against Cryptococcus neoformans ATCC 34664 at 16 ug/ml by broth dilution method; assay type: functional, organism-based

Compound	Activity (Pichia kudriavzevii [1])	Activity (Fusarium proliferatum [4])	Activity (Aspergillus niger [5])	Activity (Aspergillus fumigatus [6])	Activity (Fusarium proliferatum [9])	Activity (Aspergillus fumigatus [14])	Activity (Aspergillus niger [15])	MIC50 (Candida albicans [16]) [µg/mL]	MIC50 (Nakaseomyces glabratus [17]) [µg/mL]	MIC50 (Candida tropicalis [18]) [µg/mL]	MIC50 (Cryptococcus neoformans [19]) [µg/mL]	also measured
O=C1OCC(c2ccc(F)cc2F)=C1c1ccc(Cl)c(Cl)c1	inactive	inactive	inactive	inactive								Activity (Candida albicans [2]): inactive; Activity (Nakaseomyces glabratus [3]): inactive; Activity (Candida tropicalis [7]): inactive; Activity (Cryptococcus neoformans [8]): inactive
O=C1OCC(c2ccc(F)cc2F)=C1c1ccc(Cl)cc1					inactive	inactive	inactive					Activity (Pichia kudriavzevii [10]): inactive; Activity (Candida albicans [11]): inactive; Activity (Nakaseomyces glabratus [12]): inactive; Activity (Cryptococcus neoformans [13]): inactive
O=C1OCC(c2ccccc2)=C1c1ccc(OCC(O)(Cn2cncn2)c2ccc(F)cc2F)cc1 (racemic)	inactive	inactive	inactive	inactive				0.5 (≈ 1.02 µM)	0.5 (≈ 1.02 µM)	2 (≈ 4.09 µM)		Activity (Cryptococcus neoformans [8]): inactive
COc1ccc(C2=C(c3ccc(OCC(O)(Cn4cncn4)c4ccc(F)cc4F)cc3)C(=O)OC2)cc1 (racemic)					inactive	inactive	inactive	1 (≈ 1.92 µM)	1 (≈ 1.92 µM)	4 (≈ 7.7 µM)	2 (≈ 3.85 µM)	Activity (Pichia kudriavzevii [10]): inactive
Cc1ccc(C2=C(c3ccc(OCC(O)(Cn4cncn4)c4ccc(F)cc4F)cc3)C(=O)OC2)cc1 (racemic)	inactive	inactive	inactive	inactive				0.5 (≈ 0.993 µM)	1 (≈ 1.99 µM)	2 (≈ 3.97 µM)	2 (≈ 3.97 µM)	
O=C1OCC(c2ccc(F)cc2)=C1c1ccc(OCC(O)(Cn2cncn2)c2ccc(F)cc2F)cc1 (racemic)					inactive	inactive	inactive	0.25 (≈ 0.493 µM)	0.5 (≈ 0.985 µM)	1 (≈ 1.97 µM)	1 (≈ 1.97 µM)	MIC50 (Pichia kudriavzevii [20]): 8 µg/mL (≈ 15.8 µM)
O=C1OCC(c2ccc(F)cc2F)=C1c1ccc(OCC(O)(Cn2cncn2)c2ccc(F)cc2F)cc1 (racemic)					inactive	inactive	inactive	0.5 (≈ 0.952 µM)	0.5 (≈ 0.952 µM)	2 (≈ 3.81 µM)	2 (≈ 3.81 µM)	MIC50 (Pichia kudriavzevii [20]): 8 µg/mL (≈ 15.2 µM)
O=C1OCC(c2ccc(Br)cc2)=C1c1ccc(OCC(O)(Cn2cncn2)c2ccc(F)cc2F)cc1 (racemic)					inactive	inactive	inactive	0.5 (≈ 0.88 µM)	2 (≈ 3.52 µM)	4 (≈ 7.04 µM)	1 (≈ 1.76 µM)	MIC50 (Pichia kudriavzevii [20]): 8 µg/mL (≈ 14.1 µM)
COc1cc(C2=C(c3ccc(F)cc3)COC2=O)ccc1OCC(O)(Cn1cncn1)c1ccc(F)cc1F (racemic)					inactive	inactive	inactive	0.5 (≈ 0.93 µM)	0.5 (≈ 0.93 µM)	2 (≈ 3.72 µM)	2 (≈ 3.72 µM)	Activity (Pichia kudriavzevii [21]): inactive
COc1cc(C2=C(c3ccc(Br)cc3)COC2=O)ccc1OCC(O)(Cn1cncn1)c1ccc(F)cc1F (racemic)	inactive	inactive	inactive	inactive				1 (≈ 1.67 µM)	2 (≈ 3.34 µM)	4 (≈ 6.68 µM)	8 (≈ 13.4 µM)	
O=C1OCC(c2cccs2)=C1c1ccc(OCC(O)(Cn2cncn2)c2ccc(F)cc2F)cc1 (racemic)					inactive	inactive	inactive	0.5 (≈ 1.01 µM)	0.5 (≈ 1.01 µM)	2 (≈ 4.04 µM)		Activity (Pichia kudriavzevii [10]): inactive; Activity (Cryptococcus neoformans [13]): inactive
O=Cc1ccc(OCC(O)(Cn2cncn2)c2ccc(F)cc2F)cc1 (racemic)								0.5 (≈ 1.39 µM)	0.5 (≈ 1.39 µM)	4 (≈ 11.1 µM)	2 (≈ 5.57 µM)	MIC50 (Pichia kudriavzevii [20]): 16 µg/mL (≈ 44.5 µM); Activity (Aspergillus fumigatus [22]): inactive; Activity (Aspergillus niger [23]): inactive; Activity (Fusarium proliferatum [24]): inactive
COc1cc(C=O)ccc1OCC(O)(Cn1cncn1)c1ccc(F)cc1F (racemic)								0.5 (≈ 1.28 µM)	1 (≈ 2.57 µM)	8 (≈ 20.5 µM)	16 (≈ 41.1 µM)	MIC50 (Pichia kudriavzevii [20]): 128 µg/mL (≈ 329 µM); Activity (Aspergillus fumigatus [22]): inactive; Activity (Aspergillus niger [23]): inactive; Activity (Fusarium proliferatum [24]): inactive
COc1cc(C=O)cc(OC)c1OCC(O)(Cn1cncn1)c1ccc(F)cc1F (racemic)								1 (≈ 2.38 µM)	1 (≈ 2.38 µM)	64 (≈ 153 µM)	8 (≈ 19.1 µM)	Activity (Pichia kudriavzevii [25]): inactive; Activity (Aspergillus fumigatus [22]): inactive; Activity (Aspergillus niger [23]): inactive; Activity (Fusarium proliferatum [24]): inactive
COc1ccc(C=O)cc1OCC(O)(Cn1cncn1)c1ccc(F)cc1F (racemic)								2 (≈ 5.14 µM)	2 (≈ 5.14 µM)		16 (≈ 41.1 µM)	Activity (Pichia kudriavzevii [25]): inactive; Activity (Candida tropicalis [26]): inactive; Activity (Aspergillus fumigatus [22]): inactive; Activity (Aspergillus niger [23]): inactive; Activity (Fusarium proliferatum [24]): inactive
O=C1OC(c2ccccc2)=N/C1=C\c1ccc(OCC(O)(Cn2cncn2)c2ccc(F)cc2F)cc1 (racemic)	inactive	inactive	inactive	inactive				4 (≈ 7.96 µM)	4 (≈ 7.96 µM)			Activity (Candida tropicalis [7]): inactive; Activity (Cryptococcus neoformans [8]): inactive
O=C(O)Cc1ccc(OCC(O)(Cn2cncn2)c2ccc(F)cc2F)cc1 (racemic)								8 (≈ 20.5 µM)	8 (≈ 20.5 µM)	64 (≈ 164 µM)	64 (≈ 164 µM)	Activity (Pichia kudriavzevii [25]): inactive; Activity (Aspergillus fumigatus [22]): inactive; Activity (Aspergillus niger [23]): inactive; Activity (Fusarium proliferatum [24]): inactive
CC1OC(=O)C(c2ccc(OCC(O)(Cn3cncn3)c3ccc(F)cc3F)cc2)=C1c1ccc(F)cc1F (racemic)						inactive	inactive	1 (≈ 1.85 µM)	1 (≈ 1.85 µM)	8 (≈ 14.8 µM)	4 (≈ 7.41 µM)	Activity (Pichia kudriavzevii [10]): inactive
CC1(O)OC(=O)C(c2ccc(OCC(O)(Cn3cncn3)c3ccc(F)cc3F)cc2)=C1c1ccc(F)cc1F (racemic)								2 (≈ 3.6 µM)	2 (≈ 3.6 µM)	8 (≈ 14.4 µM)		Activity (Aspergillus fumigatus [27]): inactive; Activity (Fusarium proliferatum [28]): inactive; Activity (Aspergillus niger [29]): inactive; Activity (Cryptococcus neoformans [30]): inactive; Activity (Pichia kudriavzevii [21]): inactive
COc1cc(/C=C2\N=C(c3ccccc3)OC2=O)ccc1OCC(O)(Cn1cncn1)c1ccc(F)cc1F (racemic)	inactive	inactive	inactive	inactive								Activity (Candida albicans [2]): inactive; Activity (Nakaseomyces glabratus [3]): inactive; Activity (Candida tropicalis [7]): inactive; Activity (Cryptococcus neoformans [8]): inactive
COc1ccc(/C=C2\N=C(c3ccccc3)OC2=O)cc1OCC(O)(Cn1cncn1)c1ccc(F)cc1F (racemic)	inactive	inactive	inactive	inactive								Activity (Candida albicans [2]): inactive; Activity (Nakaseomyces glabratus [3]): inactive; Activity (Candida tropicalis [7]): inactive; Activity (Cryptococcus neoformans [8]): inactive
COc1ccc(/C=C2\SC(=S)NC2=O)cc1OCC(O)(Cn1cncn1)c1ccc(F)cc1F (racemic)					inactive	inactive	inactive					Activity (Pichia kudriavzevii [10]): inactive; Activity (Candida albicans [11]): inactive; Activity (Nakaseomyces glabratus [12]): inactive; Activity (Cryptococcus neoformans [13]): inactive
O=C1O/C(=C\c2ccc(OCC(O)(Cn3cncn3)c3ccc(F)cc3F)cc2)C(c2ccc(F)cc2F)=C1c1ccc(Cl)c(Cl)c1 (racemic)	inactive	inactive	inactive	inactive								Activity (Candida albicans [2]): inactive; Activity (Nakaseomyces glabratus [3]): inactive; Activity (Candida tropicalis [7]): inactive; Activity (Cryptococcus neoformans [8]): inactive
O=C1O/C(=C\c2ccc(OCC(O)(Cn3cncn3)c3ccc(F)cc3F)cc2)C(c2ccc(F)cc2F)=C1c1ccc(Cl)cc1 (racemic)	inactive	inactive	inactive	inactive								Activity (Candida albicans [2]): inactive; Activity (Nakaseomyces glabratus [3]): inactive; Activity (Candida tropicalis [7]): inactive; Activity (Cryptococcus neoformans [8]): inactive
OC(Cn1cncn1)(Cn1cncn1)c1ccc(F)cc1F [FLUCONAZOLE]								0.25 (≈ 0.816 µM)	1 (≈ 3.27 µM)	1 (≈ 3.27 µM)	2 (≈ 6.53 µM)	MIC50 (Pichia kudriavzevii [20]): 32 µg/mL (≈ 104 µM); Activity (Aspergillus fumigatus [22]): inactive; Activity (Aspergillus niger [23]): inactive; Activity (Fusarium proliferatum [24]): inactive
